Experimental data from patent US9212359B2, “Systems for induction of gene expression and protein depletion in yeast” (priority 2011, dated 2015).

Tested on: GEV
Assay: β-Galactosidase activity assay, PGAL1-lacZ reporter plasmid pCM64-GAL1 in DBY12100
Assay type: cell-based, S. cerevisiae
Settings: 2 hours incubation, 1 μM or 10 μM DOC
Description: Assays were performed essentially as described in (Liu et al., 1999) with minor modifications. 5 mL of cells transformed with pCM64-GAL1 were grown to midlog phase in SC-URA medium at 30° C., then incubated at indicated temperatures for the indicated times with or without (a) 5 μL of ethanol (vehicle control), (b) 2 μL of 2.5 mM β-estradiol (Sigma) dissolved in ethanol (final concentration of 1 μM), (c) 5 μL of 1 mM DOC (deoxycorticosterone; Sigma) dissolved in ethanol (final concentration of 1 μM), or (d) 5 μL of 10 mM DOC dissolved in ethanol (final concentration of 10 μM). Cells (1 mL) were harvested by centrifugation, washed once with sterile H2O, and resuspended in 700 μl of Z buffer (100 mM sodium phosphate, pH 7.0, 10 mM KCl, 1 mM MgSO4, 50 mM β-mercaptoethanol). 50 μl of chloroform and 50 μl of 0.1% SDS were added, and the cell suspension was vortex-mixed at top speed for 30 seconds followed by addition of 200 μl of 4 mg/ml ONPG (ortho-nitrophenyl-β-galactoside; Sigma) was added to each sample and incubated at room temperature until pale yellow color appeared. […] After clarification by centrifugation, the supernatant was diluted, and A420 was measured within the linear response range. Specific β-galactosidase activity was calculated as follows: (A420×1000)/(A600×(volume of cells examined in ml)×(time of incubation in minutes)) and reported in Miller units. […]

C[C@]12CC[C@H]3[C@@H](CCC4=CC(=O)CC[C@@]43C)[C@@H]1CC[C@@H]2C(=O)CO [deoxycorticosterone]
induction of GEV (lacZ activity): not induced
